# Results taken from publication PMC10006169, “A phase I trial of LXS196, a protein kinase C (PKC) inhibitor, for metastatic uveal melanoma” (British Journal of Cancer, 2023).
# Test system: patients with MUM
# Assay: Adverse events suspected to be study drug related (NCI-CTCAE v4.03)
# Assay type: in vivo, human
# Procedure: Routine safety assessments, including laboratory assessments, physical examinations, vital signs and electrocardiograms (ECGs), were conducted at regular intervals throughout the study and more frequently as needed following patient assessment by the treating physician. Adverse events (AEs) were assessed continuously according to the National Cancer Institute Common Terminology Criteria for Adverse Events (NCI-CTCAE) v4.03.
smiles,measurement,setting,value
CC1(N)CCN(c2cccnc2NC(=O)c2nc(-c3ncccc3C(F)(F)F)cnc2N)CC1 [LXS196],"Nausea, grade ≥3",300 mg QD,0 n (%)
same,"Patients with ≥1 AE, all grades",300 mg QD,14 (93.3) n (%)
same,"Patients with ≥1 AE, grade ≥3",300 mg QD,2 (13.3) n (%)
same,"Rash, all grades",300 mg QD,3 (20.0) n (%)
same,"Rash, grade ≥3",300 mg QD,0 n (%)
same,"Vomiting, all grades",300 mg QD,5 (33.3) n (%)
same,"Vomiting, grade ≥3",300 mg QD,0 n (%)
same,"ALT increased, all grades",500 mg QD,3 (27.3) n (%)
same,"ALT increased, grade ≥3",500 mg QD,1 (9.1) n (%)
same,"AST increased, all grades",500 mg QD,4 (36.4) n (%)
same,"AST increased, grade ≥3",500 mg QD,1 (9.1) n (%)
same,"Asthenia, all grades",500 mg QD,2 (18.2) n (%)
same,"Asthenia, grade ≥3",500 mg QD,0 n (%)
same,"Blood creatinine increased, all grades",500 mg QD,0 n (%)
same,"Blood creatinine increased, grade ≥3",500 mg QD,0 n (%)
same,"Constipation, all grades",500 mg QD,0 n (%)
same,"Constipation, grade ≥3",500 mg QD,0 n (%)
same,"Diarrhoea, all grades",500 mg QD,4 (36.4) n (%)
same,"Diarrhoea, grade ≥3",500 mg QD,0 n (%)
same,"Dry skin, all grades",500 mg QD,0 n (%)
same,"Dry skin, grade ≥3",500 mg QD,0 n (%)
same,"Fatigue, all grades",500 mg QD,0 n (%)
same,"Fatigue, grade ≥3",500 mg QD,0 n (%)
same,"Hypotension, all grades",500 mg QD,4 (36.4) n (%)
same,"Hypotension, grade ≥3",500 mg QD,3 (27.3) n (%)
same,"Nausea, all grades",500 mg QD,8 (72.7) n (%)
same,"Nausea, grade ≥3",500 mg QD,0 n (%)
same,"Patients with ≥1 AE, all grades",500 mg QD,10 (90.9) n (%)
same,"Patients with ≥1 AE, grade ≥3",500 mg QD,4 (36.4) n (%)
same,"Rash, all grades",500 mg QD,0 n (%)
same,"Rash, grade ≥3",500 mg QD,0 n (%)
same,"Vomiting, all grades",500 mg QD,5 (45.5) n (%)
same,"Vomiting, grade ≥3",500 mg QD,0 n (%)
same,"ALT increased, all grades",800 mg QD,0 n (%)
same,"ALT increased, grade ≥3",800 mg QD,0 n (%)
same,"AST increased, all grades",800 mg QD,0 n (%)
same,"AST increased, grade ≥3",800 mg QD,0 n (%)
same,"Asthenia, all grades",800 mg QD,0 n (%)
same,"Asthenia, grade ≥3",800 mg QD,0 n (%)
same,"Blood creatinine increased, all grades",800 mg QD,0 n (%)
same,"Blood creatinine increased, grade ≥3",800 mg QD,0 n (%)
same,"Constipation, all grades",800 mg QD,0 n (%)
same,"Constipation, grade ≥3",800 mg QD,0 n (%)
same,"Diarrhoea, all grades",800 mg QD,1 (100) n (%)
same,"Diarrhoea, grade ≥3",800 mg QD,0 n (%)
same,"Dry skin, all grades",800 mg QD,0 n (%)
same,"Dry skin, grade ≥3",800 mg QD,0 n (%)
same,"Fatigue, all grades",800 mg QD,0 n (%)
same,"Fatigue, grade ≥3",800 mg QD,0 n (%)
same,"Hypotension, all grades",800 mg QD,1 (100) n (%)
same,"Hypotension, grade ≥3",800 mg QD,1 (100) n (%)
same,"Nausea, all grades",800 mg QD,1 (100) n (%)
same,"Nausea, grade ≥3",800 mg QD,0 n (%)
same,"Patients with ≥1 AE, all grades",800 mg QD,1 (100) n (%)
same,"Patients with ≥1 AE, grade ≥3",800 mg QD,1 (100) n (%)
same,"Rash, all grades",800 mg QD,0 n (%)
same,"Rash, grade ≥3",800 mg QD,0 n (%)
same,"Vomiting, all grades",800 mg QD,0 n (%)
same,"Vomiting, grade ≥3",800 mg QD,0 n (%)
same,"ALT increased, all grades",1000 mg QD,1 (25.0) n (%)
same,"ALT increased, grade ≥3",1000 mg QD,0 n (%)
same,"AST increased, all grades",1000 mg QD,0 n (%)
same,"AST increased, grade ≥3",1000 mg QD,0 n (%)
same,"Asthenia, all grades",1000 mg QD,0 n (%)
same,"Asthenia, grade ≥3",1000 mg QD,0 n (%)
same,"Blood creatinine increased, all grades",1000 mg QD,0 n (%)
same,"Blood creatinine increased, grade ≥3",1000 mg QD,0 n (%)
same,"Constipation, all grades",1000 mg QD,0 n (%)
same,"Constipation, grade ≥3",1000 mg QD,0 n (%)
same,"Diarrhoea, all grades",1000 mg QD,4 (100) n (%)
same,"Diarrhoea, grade ≥3",1000 mg QD,0 n (%)
same,"Dry skin, all grades",1000 mg QD,1 (25.0) n (%)
same,"Dry skin, grade ≥3",1000 mg QD,0 n (%)
same,"Fatigue, all grades",1000 mg QD,3 (75.0) n (%)
same,"Fatigue, grade ≥3",1000 mg QD,0 n (%)
same,"Hypotension, all grades",1000 mg QD,2 (50.0) n (%)
same,"Hypotension, grade ≥3",1000 mg QD,1 (25.0) n (%)
same,"Nausea, all grades",1000 mg QD,4 (100) n (%)
same,"Nausea, grade ≥3",1000 mg QD,0 n (%)
same,"Patients with ≥1 AE, all grades",1000 mg QD,4 (100) n (%)
same,"Patients with ≥1 AE, grade ≥3",1000 mg QD,2 (50.0) n (%)
same,"Rash, all grades",1000 mg QD,0 n (%)
same,"Rash, grade ≥3",1000 mg QD,0 n (%)
same,"Vomiting, all grades",1000 mg QD,0 n (%)
same,"Vomiting, grade ≥3",1000 mg QD,0 n (%)
same,"ALT increased, all grades",All BID,8 (26.7) n (%)
same,"ALT increased, grade ≥3",All BID,2 (6.7) n (%)
same,"AST increased, all grades",All BID,6 (20.0) n (%)
same,"AST increased, grade ≥3",All BID,2 (6.7) n (%)
same,"Asthenia, all grades",All BID,7 (23.3) n (%)
same,"Asthenia, grade ≥3",All BID,0 n (%)
same,"Blood creatinine increased, all grades",All BID,5 (16.7) n (%)
same,"Blood creatinine increased, grade ≥3",All BID,0 n (%)
same,"Constipation, all grades",All BID,3 (10.0) n (%)
same,"Constipation, grade ≥3",All BID,0 n (%)
same,"Diarrhoea, all grades",All BID,16 (53.3) n (%)
same,"Diarrhoea, grade ≥3",All BID,1 (3.3) n (%)
